According to the supplement of paper PMC10307832:

What was measured:
Experiment in all cases: relative viability (nuclei count vs DMSO), 5 days (fraction); higher = more cells survive
Bleomycin + Linsitinib = compound: CC1=C(N=C(N=C1N)[C@H](CC(=O)N)NC[C@@H](C(=O)N)N)C(=O)N[C@@H]([C@H](C2=CN=CN2)OC3C(C(C(C(O3)CO)O)O)OC4C(C(C(C(O4)CO)O)OC(=O)N)O)C(=O)N[C@H](C)[C@H]([C@H](C)C(=O)N[C@@H]([C@@H](C)O)C(=O)NCCC5=NC(=CS5)C6=NC(=CS6)C(=O)NCCC[S+](C)C)O [Bleomycin] + C[C@]1(O)C[C@@H](c2nc(-c3ccc4ccc(-c5ccccc5)nc4c3)c3c(N)nccn32)C1 [Linsitinib] (partner 1 µM); conditions: main component drawn
Summary of the method: (§1)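 Lung cancer cell lines were seeded in 1536-well plates and dosed by pin tool the next day, with either a single drug or a fixed anchor-drug dose combined with five library-drug doses (not always all listed) spaced in √10 steps. Five days later, one step fixed the cells and stained their nuclei (final 0.05% Triton X-100, 1% formaldehyde, 1 ug/ml Hoechst), and nuclei were counted on 4× images. Relative viability is the nuclei count in treated wells divided by the count in vehicle wells, and each value is the median of duplicate plates.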

Etoposide + Crizotinib = compound: COc1cc([C@@H]2c3cc4c(cc3[C@@H](O[C@@H]3O[C@@H]5CO[C@@H](C)O[C@H]5[C@H](O)[C@H]3O)[C@H]3COC(=O)[C@H]23)OCO4)cc(OC)c1O [Etoposide] + C[C@@H](Oc1cc(-c2cnn(C3CCNCC3)c2)cnc1N)c1c(Cl)ccc(F)c1Cl [Crizotinib] (partner 1 µM)
Summary of the method: as §1

Etoposide + Pemetrexed = compound: COc1cc([C@@H]2c3cc4c(cc3[C@@H](O[C@@H]3O[C@@H]5CO[C@@H](C)O[C@H]5[C@H](O)[C@H]3O)[C@H]3COC(=O)[C@H]23)OCO4)cc(OC)c1O [Etoposide] + Nc1nc2[nH]cc(CCc3ccc(C(=O)N[C@@H](CCC(=O)O)C(=O)O)cc3)c2c(=O)[nH]1 [Pemetrexed] (partner 0.2 µM)
Summary of the method: as §1

Etoposide + Olaparib = compound: COc1cc([C@@H]2c3cc4c(cc3[C@@H](O[C@@H]3O[C@@H]5CO[C@@H](C)O[C@H]5[C@H](O)[C@H]3O)[C@H]3COC(=O)[C@H]23)OCO4)cc(OC)c1O [Etoposide] + O=C(c1cc(Cc2n[nH]c(=O)c3ccccc23)ccc1F)N1CCN(C(=O)C2CC2)CC1 [Olaparib] (partner 8 µM)
Summary of the method: as §1

Cell Line	relative viability (Bleomycin + Linsitinib; first compound 0.01 µM)	relative viability (Bleomycin + Linsitinib; first compound 0.03162 µM)	relative viability (Bleomycin + Linsitinib; first compound 0.1 µM)	relative viability (Bleomycin + Linsitinib; first compound 0.3162 µM)	relative viability (Bleomycin + Linsitinib; first compound 1 µM)	relative viability (Etoposide + Crizotinib; first compound 0.01 µM)	relative viability (Etoposide + Crizotinib; first compound 0.03162 µM)	relative viability (Etoposide + Crizotinib; first compound 0.1 µM)	relative viability (Etoposide + Crizotinib; first compound 0.3162 µM)	relative viability (Etoposide + Crizotinib; first compound 1 µM)	relative viability (Etoposide + Pemetrexed; first compound 0.01 µM)	relative viability (Etoposide + Pemetrexed; first compound 0.03162 µM)	relative viability (Etoposide + Pemetrexed; first compound 0.1 µM)	relative viability (Etoposide + Pemetrexed; first compound 0.3162 µM)	relative viability (Etoposide + Pemetrexed; first compound 1 µM)	relative viability (Etoposide + Olaparib; first compound 0.01 µM)	relative viability (Etoposide + Olaparib; first compound 0.03162 µM)	relative viability (Etoposide + Olaparib; first compound 0.1 µM)	relative viability (Etoposide + Olaparib; first compound 0.3162 µM)	relative viability (Etoposide + Olaparib; first compound 1 µM)
HCC-44	0.462	0.283	0.26	0.176	0.178	0.82	0.807	0.812	0.696	0.351	0.64	0.684	0.801	0.64	0.601	1.02	1.04	1.04	0.918	0.543
EKVX	0.909	0.822	0.859	0.375	0.336	0.868	0.916	0.891	0.816	0.414	0.351	0.443	0.344	0.285	0.248	0.832	0.955	0.658	0.647	0.293
NCI-H1651	0.862	0.766	0.596	0.27	0.152	0.815	0.827	0.629	0.301	0.202	0.707	0.728	0.466	0.382	0.127	0.175	0.188	0.202	0.138	0.0965
NCI-H1944	0.781	0.815	0.5	0.507	0.238	1.03	1.1	0.763	0.641	0.258	0.591	0.797	0.396	0.44	0.189	0.378	0.417	0.305	0.265	0.197
A-427	0.999	1.08	1.05	0.893	0.266	0.875	0.837	0.717	0.263	0.153	0.999	1.06	0.778	0.607	0.305	0.715	0.83	0.588	0.298	0.221
NCI-H2405	0.745	0.834	0.69	0.373	0.341	0.804	0.962	0.717	0.694	0.33	1.07	1.14	0.846	0.935	0.365	0.851	0.819	0.701	0.562	0.293
NCI-H1355	0.794	0.838	0.783	0.463	0.287	0.918	1.15	0.5	0.674	0.306	1.09	1.09	0.617	0.919	0.46	0.682	0.769	0.574	0.332	0.221
